Data reported in patent US20230348459A1, “PYRROLIDINE COMPOUND AND USE THEREOF” (SIMCERE PHARMACEUTICAL CO., LTD., priority 2020, published 2023).

Columns and labels:
[1] = biological target: estrogen receptors in MCF7 cells (Homo sapiens (Human), UniProt P03372); assay: Degradation of estrogen receptors in MCF7 cells (in-cell western); type: cell-based; conditions: for DC50: 24 hours treatment, read-out: ER level DC50; for Dmax: 24 hours, 0.1 µM fulvestrant = 100% degradation control, read-out: Maximum degradation rate
Sequence of estrogen receptors in MCF7 cells (P03372 whole entry): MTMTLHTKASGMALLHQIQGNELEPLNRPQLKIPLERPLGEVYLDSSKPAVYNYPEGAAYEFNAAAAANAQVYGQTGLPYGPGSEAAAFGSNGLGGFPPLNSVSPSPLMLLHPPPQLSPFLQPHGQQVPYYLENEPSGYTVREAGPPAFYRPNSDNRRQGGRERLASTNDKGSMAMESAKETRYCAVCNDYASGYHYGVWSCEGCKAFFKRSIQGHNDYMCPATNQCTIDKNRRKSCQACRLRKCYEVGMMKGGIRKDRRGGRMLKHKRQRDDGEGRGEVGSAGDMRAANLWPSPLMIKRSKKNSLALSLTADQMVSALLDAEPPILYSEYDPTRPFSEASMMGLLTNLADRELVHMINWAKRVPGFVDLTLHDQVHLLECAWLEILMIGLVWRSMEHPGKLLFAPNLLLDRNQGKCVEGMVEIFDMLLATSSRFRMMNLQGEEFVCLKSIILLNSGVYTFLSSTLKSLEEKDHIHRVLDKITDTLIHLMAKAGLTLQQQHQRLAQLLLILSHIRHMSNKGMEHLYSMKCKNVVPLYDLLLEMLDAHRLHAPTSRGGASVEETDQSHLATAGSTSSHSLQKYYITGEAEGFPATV
Experimental: The purpose of the experiment is to determine the degradation activity of the compounds of the present invention on endogenously expressed estrogen receptors in MCF7 cells, and to evaluate the activity of the compounds according to DC50 and maximum degradation efficiency.
MCF7 cells (ATCC, HTB-22) were cultured in DMEM (Gibco, 11995-065) complete medium containing 10% fetal bovine serum. On the first day of the experiment, MCF7 cells were inoculated in a 384-well plate at a density of 3000 cells/well using the complete medium, and cultured in a 37° C., 5% CO2 cell incubator. The compounds to be tested were dissolved in DMSO with a stock concentration of 10 mM, the solution was diluted with Echo 550 (Labcyte Inc.) and added to the cell culture plate. Each compound with the starting concentration for treatment of 100 nM was subjected to 3-fold gradient dilution with 9 concentration points. A blank control containing 0.5% DMSO was set, and double replicate wells as controls were set at each concentration point. The culture was cultured in a 37° C., 5% CO2 cell incubator for 24 hours. Paraformaldehyde was added to the cell culture medium in each cell culture well, and the final concentration of paraformaldehyde was about 3.7% to fix the cells. After the mixture was reacted for 30 minutes, the supernatant was discarded, and 50 µL of PBS was added to each well for washing once. The cells were treated with PBS containing 0.5% v/v Tween-20 for 30 minutes, and washed with PBS once. A blocking solution (PBS containing 5% BSA, 0.05% Tween-20) was added, and the mixture was incubated at room temperature for 1 hour. The blocking solution was removed, a mixture solution of primary antibodies (anti-ER mAb, Estrogen Receptor α (D8H8) Rabbit mAb, GST, # 8644S, 1 : 1000 dilution; anti-GAPDH mAb, GAPDH(D4C6R) Mouse mAb, GST, #97166S, 1 : 2000 dilution) was added, and the mixture was incubated at room temperature for 3 hours. The culture was washed with PBST (PBS containing 0.05% Tween-20) 3 times. Secondary antibodies for detection (800CW-goat anti-rabbit IgG, LI-COR, P/N: 926-32211, 1 : 1000 dilution; 680RD-goat anti-mouse IgG, LI-COR, #925-68070, 1 : 1000 dilution) were added, and the mixture was incubated at room temperature and in the dark for 45 minutes. After washing with PBST 3 times, the fluorescence signal of each well was read using Odyssey CLx, and the value of Chanel 800 (ER)/Chanel 680 (GAPDH) was calculated. The wells treated with 0.1 µM fulvestrant were used as the 100% degradation control, and the degradation rate at each concentration point was calculated. The data were analyzed and processed by XlLfit, and the degradation activity DC50 and the maximum degradation rate Imax of each compound were calculated.

MCF7 cells = assay: Inhibition of the proliferation of MCF7 cells (CellTiter-Glo); type: cell-based; conditions: Homo sapiens, MCF7, 168 h; 7 days treatment; read-out: MCF-7 cell proliferation inhibition IC50
Experimental: The purpose of the experiment is to determine the inhibitory effect of the compounds of the present invention on the proliferation of MCF7 cells in vitro, and to evaluate the activity of the compounds according to IC50 and maximum inhibitory efficiency.
MCF7 cells (ATCC, HTB-22) were cultured in DMEM (Gibco, 11995-065) complete medium containing 10% fetal bovine serum. On the first day of the experiment, MCF7 cells were inoculated in a 384-well plate at a density of 500 cells/well using the complete medium, and cultured in a 37° C., 5% CO2 cell incubator overnight. The next day, the compounds to be tested were added for drug treatment, and the compound solution with a stock concentration of 10 mM was diluted with Echo550 (Labcyte Inc.) and transferred to each cell culture well. Each compound with the starting concentration for treatment of 100 nM in cells was subjected to 3-fold gradient dilution with 9 concentration points. A blank control containing 0.3% DMSO was set, and double replicate wells as controls were set at each concentration point. The culture was cultured in a 37° C., 5% CO2 cell incubator for 7 days, and the cell culture plate was taken out on day 8.

MCF-7 intracranial tumor = assay: Growth inhibition in MCF-7 intracranial tumor model in mice; conditions: 250 mg/kg SC once weekly
Experimental: Animal information: NPG mice (female, 6-8 weeks, body weight: about 17-29 g) were purchased from Beijing Vitalstar Biotechnology Co., Ltd. The mice were fed in SPF environment and each cage position was individually ventilated.
Cell culture: The human breast cancer MCF-7 cell line was cultured in vitro in EMEM (cell culture medium) supplemented with 10% fetal bovine serum, 1% Pen Strep and 10 µg/ml recombinant human insulin in a 37° C., 5% CO2 incubator. Conventional digestion treatment with 0.25% trypsin-EDTA digestion solution was carried out twice weekly for passage. When the cell saturation was 80%-90%, and the number reached the requirement, the cells were collected and counted.
Cell inoculation: 15 µl/(containing 2 × 10^6) MCF-7 cell suspension was inoculated into the brain of mice using a stereotaxic apparatus, a micro-injection pump and a miniature handheld cranial drill, and the mice were subcutaneously inoculated with 17β-estradiol tablets three days before the cell inoculation. On day 8 after cell inoculation, the mice were randomized into groups for administration according to the body weight thereof, and the day of grouping was Day 0.
11 mice were in the vehicle group and 8 mice were in the administration group. Mice in all groups were continuously administered until the mice died, which were euthanized due to poor state or the end of the experiment.
The body weight of the mice was measured twice weekly, and the survival status of the mice was observed.
At the end of the experiment on Day 48, all mice were euthanized.

SMILES	DC50 [1]	Dmax [1]	IC50 (MCF7 cells)	Body weight of mice (MCF-7 intracranial tumor)	Median survival period (MCF-7 intracranial tumor)
C[C@@H]1Cc2c([nH]c3ccccc23)[C@@H](c2ccc(NC3CCN(CCCF)C3)cn2)N1CC(F)(F)F (stereo partly drawn) [Example 1, N-(1-(3-fluoropropyl)pyrrolidin-3-yl)-6-((1S,3R)-3-methyl-2-(2,2,2-trifluoroethyl)-2,3,4,9-tetrahydro-1H-pyridino[3,4-b]indol-1-yl)pyridine-3-amine]	0.41 nM	106%	0.58 nM	–	–
C[C@]12CC[C@@H]3c4ccc(O)cc4C[C@@H](CCCCCCCCC[S+]([O-])CCCC(F)(F)C(F)(F)F)[C@H]3[C@@H]1CC[C@@H]2O (some centres unmarked) [Fulvestrant, reference compound]	–	–	–	continued to lose weight	29.5 days

Further compounds by falling DC50 [1], results first:

DC50 [1]	Dmax [1]	IC50 (MCF7 cells)	SMILES	Body weight of mice (MCF-7 intracranial tumor)	Median survival period (MCF-7 intracranial tumor)
8.5 nM	92%	15 nM	C[C@@H]1Cc2c([nH]c3ccccc23)[C@@H](c2ccc(N[C@@H]3CCN(CCCF)C3)cn2)N1CC(F)(F)F [Example 2]	–	–
0.58 nM	80%	2.57 nM	C[C@@H]1Cc2c([nH]c3ccccc23)[C@@H](c2c(F)cc(N[C@@H]3CN(CCCF)C[C@H]3F)cc2F)N1CC(F)(F)F (stereo in doubt) [Example 5, trans-N-(3,5-difluoro-4-((1S,3R)-3-methyl-2-(2,2,2-trifluoroethyl)-2,3,4,9-tetrahydro-1H-pyridino[3,4-b]indol-1-yl)phenyl)-4-fluoro-1-(3-fluoropropyl)pyrrolidin-3-amine]	–	–
0.5 nM	90%	2.39 nM	C[C@@H]1CN(CCCF)C[C@H]1Nc1cc(F)c([C@@H]2c3[nH]c4ccccc4c3C[C@@H](C)N2CC(F)(F)F)c(F)c1 (stereo in doubt) [Example 6, trans-N-[3,5-difluoro-4-[(1S,3R)-3-methyl-2-(2,2,2-trifluoroethyl)-1,3,4,9-tetrahydropyridino[3,4-b]indol-1-yl]phenyl]-1-(3-fluoropropyl)-4-methyl-pyrrolidin-3-amine]	–	–
